Tested on: glycation of the extra-cellular matrix (ECM)
Test: Glycation of the extra-cellular matrix (ECM) of fibroblasts: EFA content by dot blot and densitometric analysis
Type: cell-based, human
Conditions: 1 mg/ml
Protocol: Human normal fibroblasts were cultured at 37° C. in the presence of DMEM (Invitrogen) containing 10% of fetal bovine serum (Invitrogen) and 50 UI/ml of penicillin, 50 μg/ml of […] (Invitrogen) and 2 mM of glutamin. Collagen synthesis was stimulated by culturing cells in the presence of vitamin C at 20 μg/ml (Sigma) for 5 days. The cells were then washed with PBS and lysed by successive cycles of freezing and thawing.
Except for the controls, cell layers had previously been treated with Butea frondosa (at 0.02; 0.1 and 0.5%), which was prepared according to Example 1 or with a reference compound: aminoguanidin at 1 mg/ml (Sigma). The cells were then incubated in the presence of 0.1 mg/ml glucose. Each of the treatments was performed, in triplicate, for 15 days at 37° C. with 5% CO2.
At the end of the incubation period, ECM proteins (essentially collagen) were extracted, and the samples were then transferred onto a nitrocellulose membrane (Hybrond, ECL, Amersham) by means of a Milliblot dotblot (Millipore). All the controls were carried out in order to assess the specificity of the final response. No interference was observed. […]
The following table illustrates the effect of this treatment on glucose incorporation into macromolecules synthetised by fibroblasts. The presence of EFA was measured by dot blot analysis and densitometric analysis.

Compound: N=C(N)NN [Aminoguanidin, aminoguanidin]
- Inhibition of EFA content compared to the control: 35%
- EFA content relative to control (15 days, 0.1 mg/ml glucose, control 100%): 65%
